Reference: patent publication US20070026431A1, “Modulation of MAPK-mediated phosphorylation and/or FBXW8-mediated ubiquitinylation of cyclin D1 in modulation of cellular proliferation” (priority 2005, published 2007)
Entries after “also recorded” stand apart in the source; their conditions may differ.

Columns and labels:
Format in all cases: cell-based, human
cyclin D1 protein = experiment: Pulse-chase analysis of cyclin D1 protein in HCT 116 cells; details: HCT 116; 5 μM BIO 24 hours
Method: FIG. 11 illustrates that ERK/MAPK is identified as the major kinase that is responsible for the stability of cyclin D1 protein. Panels A-F: Pulse-chase analysis of cyclin D1 protein in HCT 116 cells after exposure to the MEK inhibitor U0126 (A-C) or the GSK3 inhibitor BIO (D-F). Exponentially growing HCT 116 cells were treated with either DMSO or 10 μM of U0126 (A-C) for 30 minutes, or DMSO or 5 μM of BIO (D-F) for 24 hours. Panels A and D: Cells were pulse-labeled with ^35S-methionine for 1 hour. Subsequently these cells were chased with cold methionine for the indicated times, and then lysed respectively. Cyclin D1 was immunoprecipitated and then analyzed with SDS-PAGE. Autoradiography was performed. Levels of metabolically labeled-cyclin D1 were estimated by quantitative scanning using the Quantity One (Bio-Rad) software and blotted on the graph to determine the half-life of cyclin D1. […]
FIG. 18 illustrates that knockdown of FBXW8, or its partner CUL1 or CUL7 expression through siRNA stabilizes cyclin D1 expression in HCT 116 colon cancer cells. […] Cyclin D1 was immunoprecipitated and then analyzed with SDS-PAGE. Levels of metabolically labeled-cyclin D1 were estimated by quantitative scanning using the Quantity One software (Bio-Rad) and blotted on the graph to determine the half-life of cyclin D1 (D).
Pulse-Chase Analysis. […] Cyclin D1 was immunoprecipitated and then analyzed with SDS-PAGE. […]

GSK3α/β = experiment: Phosphorylation-specific blot for GSK3α/β, SW480 cells; details: 24 hours of treatment
[1] = test system: HCT 116 colon cancer cells; experiment: Flow-cytometric cell cycle analysis, HCT 116 cells; details: BIO 24 hours
Method: Cell cycle analysis was carried out as described previously (Tetsu et al. (1999) Nature 398: 422-6; Tetsu et al. (2003) Cancer Cell 3: 233-45.

[2] = test system: cyclin D1 Thr286 phosphorylation; experiment: Thr286 phosphorylation of transfected ΔD cyclin D1 after BIO, HCT 116 cells; details: 5 μM BIO 24 hours after transfection
Text: FIG. 9 illustrates that MAPK directly binds to cyclin D1 through the MAPK docking site (D-domain) within cyclin D1 and phosphorylates it specifically at Thr286. Panel A: p42 ERK2-associated GST-cyclin D1 (CD1) in vitro kinase assays (upper panels). Purified ERK2 phosphorylates cyclin D1 in vitro. Immuno-blotting (IB) analyses stained with a GST antibody (lower panels) were provided as a reference to show loading conditions of various forms of GST-CD1 fusion proteins. (A) GST alone (lane 1), GST-human (h) CD1 amino acids (A.A.) from 165 to 295 (165-295, lane 2), GST-human (h) or mouse (m) CD1 A.A. from 255 to 295 (255-295, lane 3 and 4) were used. Panel B: Western blot analysis following transfection of various forms of HA-tagged cyclin D1 expression vectors in both NIH 3T3 mouse fibroblast (left) and HCT 116 colon cancer (right) cells. In lane 5 and 10, Cells were treated with 5 μM of a highly specific GSK3β inhibitor BIO for further 24 hours following transfcetion of the ΔD CD1 mutant.
FIG. 11 illustrates that ERK/MAPK is identified as the major kinase that is responsible for the stability of cyclin D1 protein. […] Cyclin D1 was immunoprecipitated and then analyzed with SDS-PAGE. […] Levels of metabolically labeled-cyclin D1 were estimated by quantitative scanning using the Quantity One (Bio-Rad) software and blotted on the graph to determine the half-life of cyclin D1. […]

cyclin D1 = experiment: Immunofluorescence, subcellular localization of cyclin D1 in HCT 116 cells; details: 5 μM BIO 24 hours, BrdU pulse
Method: Panels A-C: Immunofluorescence analysis. Nuclei were visualized with Hoechst dye. […] Panel A: Subcellular localization of cyclin D1. […] Panel B: Subcellular localization of the E3 ligase. […] Panel D: Immunoprecipitated-immunoblotting analysis. Panel E: Cell cycle distributions.
Immunofluorescence Analysis. Cultured cells on multiwell chamber slides (Nalge Nunc) were fixed with 4% paraformaldehyde in PBS and permeabilized in PBS containing 0.1% Triton X-100. Primary antibodies were diluted 1:100 in PBS containing 5% normal goat serum and applied for 2 hours. Proteins were detected either with mouse monoclonal antibodies or rabbit polyclonal antibodies followed by fluorescent substrate conjugated anti-mouse or anti-rabbit secondary antibody (Molecular Probes). For example, Cyclin D1 was detected either with mouse monoclonal cyclin D1 antibody (A-12, Santa Cruz) followed by fluorescent substrate conjugated anti-mouse or anti-rabbit secondary antibody (Molecular Probes). Nuclei were visualized using Hoechst 33258 (Molecular Probes). Fluorescence image was detected using LEICADMRD microscope (Leica).
Exponentially growing HCT 116 colon cancer cells were treated with the GSK3 inhibitor BIO for 24 hours. […] The subcellular distribution of cyclin D1 was visualized under the microscope (FIG. 12, Panel A). […]

O=C1Nc2cc(Br)ccc2/C1=C1/Nc2ccccc2/C1=N\O [BIO]
half-life of cyclin D1 protein (cyclin D1 protein): no significant difference | phosphorylated forms of GSK3α/β (GSK3α/β): disappeared | cell cycle profile [1]: without affecting | phosphorylation status of cyclin D1 at Thr286 (ΔD mutant) [2]: did not show any significant effect; also recorded: minimal effect | subcellular localization of cyclin D1 (cyclin D1): no significant difference
